# Measured values reported in patent EP4722207A1, “OXOISOINDOLINYL-SUBSTITUTED TETRAHYDROPYRIMIDINEDIONE DERIVATIVE AND USE THEREOF” (Gluetacs Therapeutics (Shanghai) Co., Ltd., priority 2023, dated 2024).
# Legend:
# Assay type in all cases: cell-based
# [1] = molecular target: T1, IKZF2 (Homo sapiens, UniProt Q96SW2+Q9UKS7); experiment: Western-blot assay, substrate protein degradation in hPBMCs: IKZF2; conditions: for IKZF2 substrate protein remaining %: compounds at 50 nM and 500 nM, 24 hours; for substrate protein remaining % IKZF2: 24 hours of compound treatment, 50 nM and 500 nM
# T1 construct: effects of the compounds of the present disclosure on the expression of target proteins in cells; endogenous in cells; host or cells: human PBMCs (hPBMCs)
# T1 sequence (Q9UKS7 whole entry): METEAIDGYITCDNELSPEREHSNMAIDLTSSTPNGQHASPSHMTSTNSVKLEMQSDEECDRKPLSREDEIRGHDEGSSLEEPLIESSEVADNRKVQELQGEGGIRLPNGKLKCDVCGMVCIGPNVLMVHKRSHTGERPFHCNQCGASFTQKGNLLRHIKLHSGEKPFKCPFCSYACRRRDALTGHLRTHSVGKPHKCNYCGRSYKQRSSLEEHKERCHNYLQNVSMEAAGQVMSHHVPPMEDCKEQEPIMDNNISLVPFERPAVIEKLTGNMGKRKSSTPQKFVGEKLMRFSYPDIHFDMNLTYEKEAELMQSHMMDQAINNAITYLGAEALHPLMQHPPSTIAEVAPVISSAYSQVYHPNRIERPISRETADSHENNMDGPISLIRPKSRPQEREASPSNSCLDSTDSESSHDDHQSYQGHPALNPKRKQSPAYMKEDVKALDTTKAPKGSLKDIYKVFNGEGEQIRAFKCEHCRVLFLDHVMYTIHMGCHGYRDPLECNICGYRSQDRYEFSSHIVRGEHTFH
# T1 sequence (Q96SW2 whole entry): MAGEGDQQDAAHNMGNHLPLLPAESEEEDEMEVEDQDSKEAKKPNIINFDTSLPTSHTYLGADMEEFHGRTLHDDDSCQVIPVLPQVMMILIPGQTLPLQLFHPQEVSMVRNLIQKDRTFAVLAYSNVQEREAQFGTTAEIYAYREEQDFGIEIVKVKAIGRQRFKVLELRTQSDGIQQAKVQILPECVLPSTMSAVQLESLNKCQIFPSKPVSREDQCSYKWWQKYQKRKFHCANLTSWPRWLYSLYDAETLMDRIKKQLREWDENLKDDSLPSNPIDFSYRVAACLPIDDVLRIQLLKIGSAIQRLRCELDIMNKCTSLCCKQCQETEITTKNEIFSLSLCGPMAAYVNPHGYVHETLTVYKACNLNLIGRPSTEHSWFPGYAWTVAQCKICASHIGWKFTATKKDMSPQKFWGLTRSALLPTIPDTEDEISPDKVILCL
# T1 sequence (Q16531 whole entry partner): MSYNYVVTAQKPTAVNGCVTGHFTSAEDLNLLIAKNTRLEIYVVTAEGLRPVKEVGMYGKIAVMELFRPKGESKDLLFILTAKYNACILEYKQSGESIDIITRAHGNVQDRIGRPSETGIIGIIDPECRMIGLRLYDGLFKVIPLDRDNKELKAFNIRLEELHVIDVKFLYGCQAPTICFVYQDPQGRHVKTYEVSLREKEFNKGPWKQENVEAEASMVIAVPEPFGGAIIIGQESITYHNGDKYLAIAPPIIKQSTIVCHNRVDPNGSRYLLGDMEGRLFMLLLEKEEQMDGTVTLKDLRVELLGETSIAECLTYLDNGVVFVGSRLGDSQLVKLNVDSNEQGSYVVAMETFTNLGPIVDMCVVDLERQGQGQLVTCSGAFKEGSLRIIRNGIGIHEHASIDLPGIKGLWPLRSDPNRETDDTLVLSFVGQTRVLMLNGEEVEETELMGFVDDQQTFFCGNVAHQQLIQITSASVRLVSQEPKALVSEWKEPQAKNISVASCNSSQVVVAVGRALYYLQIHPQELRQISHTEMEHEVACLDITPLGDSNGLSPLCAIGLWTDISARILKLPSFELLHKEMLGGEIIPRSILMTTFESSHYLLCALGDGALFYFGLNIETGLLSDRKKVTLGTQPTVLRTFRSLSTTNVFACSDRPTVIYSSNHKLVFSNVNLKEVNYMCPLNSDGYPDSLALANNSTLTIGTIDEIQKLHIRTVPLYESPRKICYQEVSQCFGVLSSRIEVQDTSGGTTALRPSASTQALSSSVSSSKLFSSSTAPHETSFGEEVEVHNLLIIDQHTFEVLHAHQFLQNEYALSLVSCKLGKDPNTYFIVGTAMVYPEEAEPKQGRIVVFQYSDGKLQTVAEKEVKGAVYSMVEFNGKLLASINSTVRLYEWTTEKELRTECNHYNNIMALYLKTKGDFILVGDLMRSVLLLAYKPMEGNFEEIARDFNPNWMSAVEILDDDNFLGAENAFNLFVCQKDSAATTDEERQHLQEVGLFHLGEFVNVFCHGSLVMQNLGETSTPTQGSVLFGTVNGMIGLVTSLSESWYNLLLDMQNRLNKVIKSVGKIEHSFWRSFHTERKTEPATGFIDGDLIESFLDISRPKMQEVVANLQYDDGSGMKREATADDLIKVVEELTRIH
# [2] = molecular target: T2, IKZF3 (Homo sapiens, UniProt Q96SW2+Q9UKT9); experiment: Western-blot assay, substrate protein degradation in hPBMCs: IKZF3; conditions: for IKZF3 substrate protein remaining %: compounds at 50 nM and 500 nM, 24 hours; for substrate protein remaining % IKZF3: 24 hours of compound treatment, 50 nM and 500 nM
# T2 construct: effects of the compounds of the present disclosure on the expression of target proteins in cells; endogenous in cells; host or cells: human PBMCs (hPBMCs)
# T2 sequence (Q9UKT9 whole entry): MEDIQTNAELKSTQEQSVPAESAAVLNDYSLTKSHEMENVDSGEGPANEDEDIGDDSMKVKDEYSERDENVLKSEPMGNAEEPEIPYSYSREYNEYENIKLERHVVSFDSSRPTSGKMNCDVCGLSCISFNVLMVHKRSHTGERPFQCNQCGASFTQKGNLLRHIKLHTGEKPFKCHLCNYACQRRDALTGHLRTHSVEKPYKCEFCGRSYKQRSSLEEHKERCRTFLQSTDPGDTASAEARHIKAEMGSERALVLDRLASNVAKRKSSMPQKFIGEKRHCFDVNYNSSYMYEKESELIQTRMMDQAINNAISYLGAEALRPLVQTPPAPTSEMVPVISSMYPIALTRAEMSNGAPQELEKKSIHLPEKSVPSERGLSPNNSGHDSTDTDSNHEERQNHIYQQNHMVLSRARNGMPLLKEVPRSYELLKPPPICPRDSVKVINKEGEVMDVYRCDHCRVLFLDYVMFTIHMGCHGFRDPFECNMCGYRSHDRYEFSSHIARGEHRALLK
# T2 sequence (Q96SW2 whole entry): as the sequence (Q96SW2 whole entry) above
# T2 sequence (Q16531 whole entry partner): as the sequence (Q16531 whole entry partner) above
# [3] = molecular target: T3, WEE1 (Homo sapiens, UniProt P30291+Q96SW2); experiment: Western-blot assay, substrate protein degradation in hPBMCs: WEE1; conditions: for WEE1 substrate protein remaining %: compounds at 50 nM and 500 nM, 24 hours; for substrate protein remaining % WEE1: 24 hours of compound treatment, 50 nM and 500 nM
# T3 construct: effects of the compounds of the present disclosure on the expression of target proteins in cells; endogenous in cells; host or cells: human PBMCs (hPBMCs)
# T3 sequence (P30291 whole entry): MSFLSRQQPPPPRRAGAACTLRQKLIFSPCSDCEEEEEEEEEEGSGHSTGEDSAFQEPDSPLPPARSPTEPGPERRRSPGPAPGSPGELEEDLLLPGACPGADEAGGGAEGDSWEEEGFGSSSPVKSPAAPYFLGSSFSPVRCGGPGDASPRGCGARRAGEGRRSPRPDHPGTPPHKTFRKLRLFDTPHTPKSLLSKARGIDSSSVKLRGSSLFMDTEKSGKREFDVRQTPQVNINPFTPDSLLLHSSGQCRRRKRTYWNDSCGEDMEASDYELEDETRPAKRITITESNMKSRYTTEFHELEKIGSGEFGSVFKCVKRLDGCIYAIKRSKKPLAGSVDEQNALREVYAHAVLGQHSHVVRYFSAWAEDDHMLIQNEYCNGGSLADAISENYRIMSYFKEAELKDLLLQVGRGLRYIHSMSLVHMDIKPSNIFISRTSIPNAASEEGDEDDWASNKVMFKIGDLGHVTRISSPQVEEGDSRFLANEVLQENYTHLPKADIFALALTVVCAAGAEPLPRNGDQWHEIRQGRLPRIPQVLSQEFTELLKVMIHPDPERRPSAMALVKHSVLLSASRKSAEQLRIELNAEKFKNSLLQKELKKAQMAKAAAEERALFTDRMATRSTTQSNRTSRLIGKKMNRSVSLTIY
# T3 sequence (Q96SW2 whole entry): as the sequence (Q96SW2 whole entry) above
# T3 sequence (Q16531 whole entry partner): as the sequence (Q16531 whole entry partner) above
# [4] = molecular target: T4, CK1α (Homo sapiens, UniProt P48729+Q96SW2); experiment: Western-blot assay, substrate protein degradation in hPBMCs: CK1α; conditions: for CK1α substrate protein remaining %: compounds at 50 nM and 500 nM, 24 hours; for substrate protein remaining % CK1α: 24 hours of compound treatment, 50 nM and 500 nM
# T4 construct: effects of the compounds of the present disclosure on the expression of target proteins in cells; endogenous in cells; host or cells: human PBMCs (hPBMCs)
# T4 sequence (P48729 whole entry): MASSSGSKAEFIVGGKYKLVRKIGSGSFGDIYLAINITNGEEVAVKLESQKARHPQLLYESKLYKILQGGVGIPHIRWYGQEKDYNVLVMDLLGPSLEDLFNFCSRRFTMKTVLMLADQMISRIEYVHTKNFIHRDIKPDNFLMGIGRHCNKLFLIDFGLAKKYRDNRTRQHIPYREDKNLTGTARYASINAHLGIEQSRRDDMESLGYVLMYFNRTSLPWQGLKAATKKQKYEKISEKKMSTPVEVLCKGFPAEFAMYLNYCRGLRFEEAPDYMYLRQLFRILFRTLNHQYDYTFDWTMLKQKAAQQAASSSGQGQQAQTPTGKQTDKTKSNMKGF
# T4 sequence (Q96SW2 whole entry): as the sequence (Q96SW2 whole entry) above
# T4 sequence (Q16531 whole entry partner): as the sequence (Q16531 whole entry partner) above
# [5] = molecular target: T5, IKZF1 (Homo sapiens, UniProt Q13422+Q96SW2); experiment: Western-blot assay, substrate protein degradation in hPBMCs: IKZF1; conditions: for IKZF1 substrate protein remaining %: compounds at 50 nM and 500 nM, 24 hours; for substrate protein remaining % IKZF1: 24 hours of compound treatment, 50 nM and 500 nM
# T5 construct: effects of the compounds of the present disclosure on the expression of target proteins in cells; endogenous in cells; host or cells: human PBMCs (hPBMCs)
# [6] = molecular target: T6, GSPT1 (Homo sapiens, UniProt P15170+Q96SW2); experiment: Western-blot assay, substrate protein degradation in hPBMCs: GSPT1; conditions: for GSPT1 substrate protein remaining %: compounds at 50 nM and 500 nM, 24 hours; for substrate protein remaining % GSPT1: 24 hours of compound treatment, 50 nM and 500 nM
# T6 construct: effects of the compounds of the present disclosure on the expression of target proteins in cells; endogenous in cells; host or cells: human PBMCs (hPBMCs)
# T6 sequence (P15170 whole entry): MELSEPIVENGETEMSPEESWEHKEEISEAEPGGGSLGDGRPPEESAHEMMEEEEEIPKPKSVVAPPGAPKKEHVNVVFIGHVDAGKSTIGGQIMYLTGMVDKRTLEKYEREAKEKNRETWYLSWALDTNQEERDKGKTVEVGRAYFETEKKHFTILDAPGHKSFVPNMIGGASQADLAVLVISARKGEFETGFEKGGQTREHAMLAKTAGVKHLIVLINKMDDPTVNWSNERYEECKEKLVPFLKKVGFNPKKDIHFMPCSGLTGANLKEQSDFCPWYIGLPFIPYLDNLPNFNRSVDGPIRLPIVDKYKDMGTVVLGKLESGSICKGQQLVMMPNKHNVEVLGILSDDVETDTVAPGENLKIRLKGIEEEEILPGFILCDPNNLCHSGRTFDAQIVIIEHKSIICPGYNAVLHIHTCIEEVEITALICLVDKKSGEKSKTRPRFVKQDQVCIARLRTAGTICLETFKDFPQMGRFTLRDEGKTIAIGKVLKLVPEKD
# T6 sequence (Q96SW2 whole entry): as the sequence (Q96SW2 whole entry) above
# T6 sequence (Q16531 whole entry partner): as the sequence (Q16531 whole entry partner) above
SMILES,IKZF2 substrate protein remaining % [1],IKZF3 substrate protein remaining % [2],WEE1 substrate protein remaining % [3],CK1α substrate protein remaining % [4],IKZF1 substrate protein remaining % [5],GSPT1 substrate protein remaining % [6],substrate protein remaining % IKZF2 [1],substrate protein remaining % IKZF3 [2],substrate protein remaining % WEE1 [3],substrate protein remaining % CK1α [4],substrate protein remaining % IKZF1 [5],substrate protein remaining % GSPT1 [6]
"O=C1CCN(N2Cc3cc(CN4CCN(c5cccc(F)c5)CC4)ccc3C2=O)C(=O)N1 [GT-06701, 1-(5-((4-(3-fluorophenyl)piperazin-1-yl)methyl)-1-oxoisoindolin-2-yl)dihydropyrimidine-2,4(1H,3H)-dione]","B (""B"" is defined as 80%< substrate protein remaining %≤ 100%)","B (""B"" is defined as 80%< substrate protein remaining %≤ 100%)","B (""B"" is defined as 80%< substrate protein remaining %≤ 100%)","A (""A"" is defined as 0% ≤ substrate protein remaining % ≤ 80%)","B (""B"" is defined as 80%< substrate protein remaining %≤ 100%)","A (""A"" is defined as 0% ≤ substrate protein remaining % ≤ 80%)",–,–,–,–,–,–
"O=C1CCN(N2C(=O)c3ccc(CN4CCN(CC5=C(c6ccc(F)cc6)CCCC5)CC4)cc3C2=O)C(=O)N1 [GT-07302, 2-(2,4-dioxotetrahydropyrimidin-1(2H)-yl)-5-((4-((4'-fluoro-3,4,5,6-tetrahydro-[1,1'-biphenyl]-2-yl)methyl)piperazin-1-yl)methyl)isoindoline-1,3-dione]",–,–,–,–,–,–,B (80%< substrate protein remaining %≤ 100%),B (80%< substrate protein remaining %≤ 100%),A (0% ≤ substrate protein remaining % ≤ 80%),B (80%< substrate protein remaining %≤ 100%),B (80%< substrate protein remaining %≤ 100%),B (80%< substrate protein remaining %≤ 100%)
"O=C1CCN(N2C(=O)c3ccc(CN4CC5CCC(C4)N5c4cccc(Cl)c4Cl)cc3C2=O)C(=O)N1 [GT-07437, 5-((8-(2,3-dichlorophenyl)-3,8-diazabicyclo[3.2.1]octan-3-yl)methyl)-2-(2,4-dioxotetrahydropyrimidin-1(2H)-yl)isoindoline-1,3-dione]",–,–,–,–,–,–,B (80%< substrate protein remaining %≤ 100%),B (80%< substrate protein remaining %≤ 100%),A (0% ≤ substrate protein remaining % ≤ 80%),A (0% ≤ substrate protein remaining % ≤ 80%),B (80%< substrate protein remaining %≤ 100%),A (0% ≤ substrate protein remaining % ≤ 80%)
"O=C1CCN(N2C(=O)c3ccc(CN4CCN(c5ccccc5)CC4)cc3C2=O)C(=O)N1 [GT-06719, 2-(2,4-dioxotetrahydropyrimidin-1(2H)-yl)-5-((4-phenylpiperazin-1-yl)methyl)isoindoline-1,3-dione]","B (""B"" is defined as 80%< substrate protein remaining %≤ 100%)","A (""A"" is defined as 0% ≤ substrate protein remaining % ≤ 80%)","B (""B"" is defined as 80%< substrate protein remaining %≤ 100%)","B (""B"" is defined as 80%< substrate protein remaining %≤ 100%)","B (""B"" is defined as 80%< substrate protein remaining %≤ 100%)","B (""B"" is defined as 80%< substrate protein remaining %≤ 100%)",–,–,–,–,–,–
"O=C1CCN(N2C(=O)c3ccc(CN4CC=C(c5c[nH]c6cc(F)ccc56)CC4)cc3C2=O)C(=O)N1 [GT-07580, 2-(2,4-dioxotetrahydropyrimidin-1(2H)-yl)-5-((4-(6-fluoro-1H-indol-3-yl)-3,6-dihydropyridin-1(2H)-yl)methyl)isoindoline-1,3-dione]",–,–,–,–,–,–,A (0% ≤ substrate protein remaining % ≤ 80%),A (0% ≤ substrate protein remaining % ≤ 80%),A (0% ≤ substrate protein remaining % ≤ 80%),B (80%< substrate protein remaining %≤ 100%),A (0% ≤ substrate protein remaining % ≤ 80%),A (0% ≤ substrate protein remaining % ≤ 80%)
"O=C1CCN(N2C(=O)c3ccc(CN4CC=C(c5cccc(F)c5Cl)CC4)cc3C2=O)C(=O)N1 [GT-06896, 5-((4-(2-chloro-3-fluorophenyl)-3,6-dihydropyridin-1(2H)-yl)methyl)-2-(2,4-dioxotetrahydropyrimidin-1(2H)-yl)isoindoline-1,3-dione]","B (""B"" is defined as 80%< substrate protein remaining %≤ 100%)","B (""B"" is defined as 80%< substrate protein remaining %≤ 100%)","B (""B"" is defined as 80%< substrate protein remaining %≤ 100%)","B (""B"" is defined as 80%< substrate protein remaining %≤ 100%)","A (""A"" is defined as 0% ≤ substrate protein remaining % ≤ 80%)","B (""B"" is defined as 80%< substrate protein remaining %≤ 100%)",–,–,–,–,–,–
"O=C1CCN(N2C(=O)c3ccc(CN4CCC(N(c5ccccc5)c5ccccc5)CC4)cc3C2=O)C(=O)N1 [GT-05177, 2-(2,4-dioxotetrahydropyrimidin-1(2H)-yl)-5-((4-(diphenylamino)piperidin-1-yl)methyl)isoindoline-1,3-dione]","B (""B"" is defined as 80%< substrate protein remaining %≤ 100%)","B (""B"" is defined as 80%< substrate protein remaining %≤ 100%)","B (""B"" is defined as 80%< substrate protein remaining %≤ 100%)","B (""B"" is defined as 80%< substrate protein remaining %≤ 100%)","B (""B"" is defined as 80%< substrate protein remaining %≤ 100%)","A (""A"" is defined as 0% ≤ substrate protein remaining % ≤ 80%)",–,–,–,–,–,–
"O=C1CCN(N2Cc3cc(CN4CCN(c5cc(F)cc(F)c5)CC4)ccc3C2=O)C(=O)N1 [GT-06782, 1-(5-((4-(3,5-difluorophenyl)piperazin-1-yl)methyl)-1-oxoisoindolin-2-yl)dihydropyrimidine-2,4(1H,3H)-dione]","B (""B"" is defined as 80%< substrate protein remaining %≤ 100%)","B (""B"" is defined as 80%< substrate protein remaining %≤ 100%)","B (""B"" is defined as 80%< substrate protein remaining %≤ 100%)","A (""A"" is defined as 0% ≤ substrate protein remaining % ≤ 80%)","B (""B"" is defined as 80%< substrate protein remaining %≤ 100%)","A (""A"" is defined as 0% ≤ substrate protein remaining % ≤ 80%)",–,–,–,–,–,–
"O=C1CCN(N2C(=O)c3ccc(CN4CCC(c5ccon5)CC4)cc3C2=O)C(=O)N1 [GT-07523, 2-(2,4-dioxotetrahydropyrimidin-1(2H)-yl)-5-((4-(isoxazol-3-yl)piperidin-1-yl)methyl)isoindoline-1,3-dione]",–,–,–,–,–,–,A (0% ≤ substrate protein remaining % ≤ 80%),B (80%< substrate protein remaining %≤ 100%),A (0% ≤ substrate protein remaining % ≤ 80%),A (0% ≤ substrate protein remaining % ≤ 80%),A (0% ≤ substrate protein remaining % ≤ 80%),A (0% ≤ substrate protein remaining % ≤ 80%)
"O=C1CCN(N2C(=O)c3ccc(CN4CCN(c5nccc(F)c5F)CC4)cc3C2=O)C(=O)N1 [GT-07162, 5-((4-(3,4-difluoropyridin-2-yl)piperazin-1-yl)methyl)-2-(2,4-dioxotetrahydropyrimidin-1(2H)-yl)isoindoline-1,3-dione]","A (""A"" is defined as 0% ≤ substrate protein remaining % ≤ 80%)","B (""B"" is defined as 80%< substrate protein remaining %≤ 100%)","B (""B"" is defined as 80%< substrate protein remaining %≤ 100%)","A (""A"" is defined as 0% ≤ substrate protein remaining % ≤ 80%)","B (""B"" is defined as 80%< substrate protein remaining %≤ 100%)","A (""A"" is defined as 0% ≤ substrate protein remaining % ≤ 80%)",–,–,–,–,–,–
"O=C1CCN(N2C(=O)c3ccc(CN4CCN(c5ncc(Cl)cc5Cl)CC4)cc3C2=O)C(=O)N1 [GT-06969, 5-((4-(3,5-dichloropyridin-2-yl)piperazin-1-yl)methyl)-2-(2,4-dioxotetrahydropyrimidin-1(2H)-yl)isoindoline-1,3-dione]","A (""A"" is defined as 0% ≤ substrate protein remaining % ≤ 80%)","B (""B"" is defined as 80%< substrate protein remaining %≤ 100%)","A (""A"" is defined as 0% ≤ substrate protein remaining % ≤ 80%)","B (""B"" is defined as 80%< substrate protein remaining %≤ 100%)","B (""B"" is defined as 80%< substrate protein remaining %≤ 100%)","B (""B"" is defined as 80%< substrate protein remaining %≤ 100%)",–,–,–,–,–,–
"CC1(C)CN(Cc2ccc3c(c2)C(=O)N(N2CCC(=O)NC2=O)C3=O)CCN1C(c1ccccc1)c1ccccc1 [GT-06385, 5-((4-benzhydryl-3,3-dimethylpiperazin-1-yl)methyl)-2-(2,4-dioxotetrahydropyrimidin-1(2H)-yl)isoindoline-1,3-dione]","B (""B"" is defined as 80%< substrate protein remaining %≤ 100%)","A (""A"" is defined as 0% ≤ substrate protein remaining % ≤ 80%)","A (""A"" is defined as 0% ≤ substrate protein remaining % ≤ 80%)","B (""B"" is defined as 80%< substrate protein remaining %≤ 100%)","B (""B"" is defined as 80%< substrate protein remaining %≤ 100%)","A (""A"" is defined as 0% ≤ substrate protein remaining % ≤ 80%)",–,–,–,–,–,–
